Measurements reported in the OligoGym collection.
HELM strings list units from the 5' end as sugar, base in round brackets, then linkage (d deoxyribose, r ribose, m 2'-O-methyl, p phosphodiester). Strings are as the collection lists them; they lack the last nucleoside at the 3' end of the tested compound. [moe] = 2'-O-(2-methoxyethyl) (MOE); [sp] = phosphorothioate linkage; [m5C] = 5-methylcytosine

Molecular target: SCN2A
Assay: mouse, dose not given
Settings: ASO

Substance | 3 h FOB score [score 0-7]
RNA1{[moe]([m5C])[sp].[moe](T)p.[moe](A)p.[moe](T)p.[moe](T)[sp].d(T)[sp].d(T)[sp].d(A)[sp].d(T)[sp].d(A)[sp].d(A)[sp].d(A)[sp].d(T)[sp].[moe](G)p.[moe]([m5C])p.[moe]([m5C])[sp].[moe](G)}$$$$ (last 3' nucleoside missing) | 0
RNA1{[moe](T)[sp].[moe](T)p.[moe]([m5C])p.[moe](T)p.[moe](A)p.[moe](T)p.d(T)[sp].d(T)[sp].d(T)[sp].d(A)[sp].d(T)[sp].d(A)[sp].d(A)[sp].d(A)[sp].d(T)[sp].d(G)[sp].[moe]([m5C])p.[moe]([m5C])[sp].[moe](G)}$$$$ (last 3' nucleoside missing) | 3
RNA1{[moe](T)[sp].[moe](G)p.[moe](G)p.[moe](G)p.[moe](T)p.d([m5C])[sp].d(T)[sp].d([m5C])[sp].d(T)[sp].d(T)[sp].d(A)[sp].d(G)[sp].d([m5C])[sp].d(T)[sp].d(T)[sp].[moe](T)p.[moe]([m5C])p.[moe](T)[sp].[moe]([m5C])}$$$$ (last 3' nucleoside missing) | 1.33
RNA1{[moe](G)[sp].[moe](A)p.[moe](A)p.[moe](T)p.d(T)[sp].d([m5C])[sp].d(T)[sp].d(A)[sp].d(T)[sp].d(T)[sp].d(T)[sp].d(T)[sp].d(A)[sp].d(T)[sp].[moe](A)p.[moe](A)p.[moe](A)p.[moe](T)[sp].[moe](G)}$$$$ (last 3' nucleoside missing) | 0.67
RNA1{[moe](T)[sp].[moe]([m5C])p.[moe](T)p.[moe](G)[sp].d([m5C])[sp].d(A)[sp].d(T)[sp].d(G)[sp].d(T)[sp].d(A)[sp].d(A)[sp].d([m5C])[sp].[moe]([m5C])p.[moe](T)p.[moe](T)p.[moe](T)[sp].[moe](A)}$$$$ (last 3' nucleoside missing) | 2
RNA1{[moe](T)[sp].[moe]([m5C])p.[moe](T)p.[moe](T)p.[moe](T)p.d([m5C])[sp].d(T)[sp].d(T)[sp].d(A)[sp].d(T)[sp].d(T)[sp].d(T)[sp].d([m5C])[sp].d(T)[sp].d(G)[sp].[moe](T)p.[moe](T)p.[moe](T)[sp].[moe]([m5C])}$$$$ (last 3' nucleoside missing) | 1.67
RNA1{[moe](G)[sp].[moe]([m5C])p.[moe](A)p.[moe](T)p.[moe](A)p.[moe](A)p.d(T)[sp].d([m5C])[sp].d([m5C])[sp].d([m5C])[sp].d(A)[sp].d(T)[sp].d(T)[sp].d(A)[sp].d(T)[sp].d(A)[sp].[moe]([m5C])p.[moe](A)[sp].[moe](A)}$$$$ (last 3' nucleoside missing) | 0
RNA1{[moe](G)[sp].[moe]([m5C])p.[moe](A)p.[moe](T)p.[moe](G)[sp].d(T)[sp].d(A)[sp].d(A)[sp].d([m5C])[sp].d([m5C])[sp].d(T)[sp].d(T)[sp].d(T)[sp].[moe](A)p.[moe](T)p.[moe](A)[sp].[moe]([m5C])}$$$$ (last 3' nucleoside missing) | 0
RNA1{[moe]([m5C])[sp].[moe](A)p.[moe](T)p.[moe](A)p.d(T)[sp].d(T)[sp].d(T)[sp].d(T)[sp].d(T)[sp].d([m5C])[sp].d(T)[sp].d(A)[sp].d([m5C])[sp].d(A)[sp].[moe]([m5C])p.[moe](T)p.[moe](G)p.[moe]([m5C])[sp].[moe](T)}$$$$ (last 3' nucleoside missing) | 2
RNA1{[moe]([m5C])[sp].[moe](A)p.[moe](T)p.[moe](G)p.[moe](T)[sp].d(A)[sp].d(A)[sp].d([m5C])[sp].d([m5C])[sp].d(T)[sp].d(T)[sp].d(T)[sp].d(A)[sp].[moe](T)p.[moe](A)p.[moe]([m5C])[sp].[moe](A)}$$$$ (last 3' nucleoside missing) | 0
RNA1{[moe]([m5C])[sp].[moe](A)p.[moe]([m5C])p.[moe](G)p.[moe](A)p.d([m5C])[sp].d(A)[sp].d(T)[sp].d(A)[sp].d(T)[sp].d(T)[sp].d(T)[sp].d(T)[sp].d(T)[sp].d([m5C])[sp].[moe](T)p.[moe](A)p.[moe]([m5C])[sp].[moe](A)}$$$$ (last 3' nucleoside missing) | 0
RNA1{[moe]([m5C])[sp].[moe](T)p.[moe](A)p.[moe](T)[sp].d(T)[sp].d(T)[sp].d(T)[sp].d(A)[sp].d(T)[sp].d(A)[sp].d(A)[sp].d(A)[sp].[moe](T)p.[moe](G)p.[moe]([m5C])p.[moe]([m5C])[sp].[moe](G)}$$$$ (last 3' nucleoside missing) | 0
RNA1{[moe](G)[sp].[moe](T)p.[moe](T)p.[moe]([m5C])p.[moe]([m5C])p.d(A)[sp].d(T)[sp].d(T)[sp].d(A)[sp].d(A)[sp].d(A)[sp].d([m5C])[sp].d(T)[sp].d(A)[sp].d(A)[sp].[moe](G)p.[moe](G)p.[moe]([m5C])[sp].[moe](T)}$$$$ (last 3' nucleoside missing) | 1
RNA1{[moe]([m5C])[sp].[moe]([m5C])p.[moe](A)p.[moe]([m5C])p.[moe](G)p.[moe]([m5C])p.d(T)[sp].d(T)[sp].d(A)[sp].d([m5C])[sp].d(A)[sp].d(T)[sp].d([m5C])[sp].d(A)[sp].d(A)[sp].d(A)[sp].[moe]([m5C])p.[moe](A)[sp].[moe](T)}$$$$ (last 3' nucleoside missing) | 0
RNA1{[moe](G)[sp].[moe]([m5C])p.[moe](A)p.[moe](T)p.[moe](G)p.[moe](T)[sp].d(A)[sp].d(A)[sp].d([m5C])[sp].d([m5C])[sp].d(T)[sp].d(T)[sp].d(T)[sp].d(A)[sp].[moe](T)p.[moe](A)[sp].[moe]([m5C])}$$$$ (last 3' nucleoside missing) | 0.33
RNA1{[moe]([m5C])[sp].[moe](A)p.[moe](G)p.[moe]([m5C])p.[moe](A)p.[moe](T)p.d(A)[sp].d(T)[sp].d(T)[sp].d([m5C])[sp].d(T)[sp].d(A)[sp].d(A)[sp].d([m5C])[sp].d(A)[sp].d(T)[sp].[moe](G)p.[moe](G)[sp].[moe](T)}$$$$ (last 3' nucleoside missing) | 0
RNA1{[moe](G)[sp].[moe](G)p.[moe](A)p.[moe](T)p.[moe](A)p.d(G)[sp].d(T)[sp].d(G)[sp].d([m5C])[sp].d(T)[sp].d([m5C])[sp].d([m5C])[sp].d(A)[sp].d(T)[sp].d(A)[sp].[moe](G)p.[moe]([m5C])p.[moe]([m5C])[sp].[moe](A)}$$$$ (last 3' nucleoside missing) | 2
RNA1{[moe]([m5C])[sp].[moe](A)p.[moe]([m5C])p.[moe](G)p.[moe]([m5C])p.d(T)[sp].d(T)[sp].d(A)[sp].d([m5C])[sp].d(A)[sp].d(T)[sp].d([m5C])[sp].d(A)[sp].d(A)[sp].d(A)[sp].[moe]([m5C])p.[moe](A)p.[moe](T)[sp].[moe]([m5C])}$$$$ (last 3' nucleoside missing) | 0
RNA1{[moe]([m5C])[sp].[moe](A)p.[moe](T)p.[moe](G)p.[moe]([m5C])p.d(A)[sp].d(T)[sp].d(A)[sp].d(A)[sp].d(T)[sp].d([m5C])[sp].d([m5C])[sp].d([m5C])[sp].d(A)[sp].d(T)[sp].[moe](T)p.[moe](A)p.[moe](T)[sp].[moe](A)}$$$$ (last 3' nucleoside missing) | 0
RNA1{[moe]([m5C])[sp].[moe](A)p.[moe](T)p.[moe](G)p.d(T)[sp].d(A)[sp].d(A)[sp].d(T)[sp].d([m5C])[sp].d(A)[sp].d([m5C])[sp].d(T)[sp].d(T)[sp].d(T)[sp].[moe]([m5C])p.[moe](A)p.[moe](T)p.[moe]([m5C])[sp].[moe]([m5C])}$$$$ (last 3' nucleoside missing) | 0
RNA1{[moe]([m5C])[sp].[moe]([m5C])p.[moe](G)p.[moe](A)p.[moe](A)p.d(T)[sp].d(T)[sp].d([m5C])[sp].d(T)[sp].d(A)[sp].d(T)[sp].d(T)[sp].d(T)[sp].d(T)[sp].d(A)[sp].[moe](T)p.[moe](A)p.[moe](A)[sp].[moe](A)}$$$$ (last 3' nucleoside missing) | 0.67
RNA1{[moe](T)[sp].[moe]([m5C])p.[moe](T)p.[moe](T)p.d(T)[sp].d([m5C])[sp].d(T)[sp].d(T)[sp].d(A)[sp].d(T)[sp].d(T)[sp].d(T)[sp].d([m5C])[sp].d(T)[sp].[moe](G)p.[moe](T)p.[moe](T)p.[moe](T)[sp].[moe]([m5C])}$$$$ (last 3' nucleoside missing) | 0
RNA1{[moe](G)[sp].[moe]([m5C])p.[moe](A)p.[moe](T)p.d(G)[sp].d(T)[sp].d(T)[sp].d(T)[sp].d(A)[sp].d(T)[sp].d([m5C])[sp].d(T)[sp].d(T)[sp].d(A)[sp].[moe](G)p.[moe](T)p.[moe](T)p.[moe]([m5C])[sp].[moe](T)}$$$$ (last 3' nucleoside missing) | 0
RNA1{[moe](T)[sp].[moe](A)p.[moe](A)p.[moe](T)p.[moe]([m5C])p.d(A)[sp].d([m5C])[sp].d(T)[sp].d(T)[sp].d(T)[sp].d([m5C])[sp].d(A)[sp].d(T)[sp].d([m5C])[sp].d([m5C])[sp].[moe](A)p.[moe]([m5C])p.[moe](G)[sp].[moe](A)}$$$$ (last 3' nucleoside missing) | 0
RNA1{[moe]([m5C])[sp].[moe](G)p.[moe](A)p.[moe](A)p.[moe](T)p.[moe](T)p.d([m5C])[sp].d(T)[sp].d(A)[sp].d(T)[sp].d(T)[sp].d(T)[sp].d(T)[sp].d(A)[sp].d(T)[sp].d(A)[sp].[moe](A)p.[moe](A)[sp].[moe](T)}$$$$ (last 3' nucleoside missing) | 2.33
RNA1{[moe]([m5C])[sp].[moe]([m5C])p.[moe](A)p.[moe](G)p.d(T)[sp].d(T)[sp].d(T)[sp].d(T)[sp].d(T)[sp].d(T)[sp].d([m5C])[sp].d(A)[sp].d(T)[sp].d(T)[sp].[moe](G)p.[moe]([m5C])p.[moe](A)p.[moe](T)[sp].[moe]([m5C])}$$$$ (last 3' nucleoside missing) | 0
RNA1{[moe]([m5C])[sp].[moe](A)p.[moe](T)p.[moe](G)p.[moe](T)p.[moe](A)p.d(A)[sp].d([m5C])[sp].d([m5C])[sp].d(T)[sp].d(T)[sp].d(T)[sp].d(A)[sp].d(T)[sp].d(A)[sp].d([m5C])[sp].[moe](A)p.[moe](T)[sp].[moe](T)}$$$$ (last 3' nucleoside missing) | 0
